Organism: Rattus norvegicus
Assay: Open TG-GATES - Regimen: Daily Repeat
Assay type: toxicity, organism-based, Sprague-Dawley
Design: regimen Daily Repeat, gender Male, age 6 weeks
Conditions: in vivo, po, route gavage; for APTT / Bas / Eos / Fbg / Hb / Ht / Lym / MCH / MCHC / MCV / Mono / Neu / PT / Plat / RBC / Ret / WBC: tissue Blood; for KIDNEY_L / KIDNEY_R / KIDNEY_TOTAL: tissue Kidney; for LIVER: tissue Liver; for A/G / ALP / ALT / AST / BUN / CRE / Ca / Cl / DBIL / GLC / IP / K / LDH / Na / PL / RALB / TBIL / TC / TG / TP / gamma-GTP: tissue Plasma
[1] = 0 mg/kg, 72 h, dose level Control, time 3 day
[2] = 0 mg/kg, […], dose level Control, time 7 day
[3] = 0 mg/kg, […], dose level Control, time 14 day
[4] = 0 mg/kg, […], dose level Control, time 28 day
[5] = 10 mg/kg, 72 h, dose level Low, time 3 day
[6] = 10 mg/kg, […], dose level Low, time 7 day
[7] = 10 mg/kg, […], dose level Low, time 14 day
[8] = 10 mg/kg, […], dose level Low, time 28 day

CN(C)CCN(Cc1cccs1)c1ccccn1
TERMINAL_BW [1]: 217.2 g
APTT [1]: 22.4 s
Bas [1]: 0%
Eos [1]: 0.6%
Fbg [1]: 290.8 mg/dL
Hb [1]: 12.9 g/dL
Ht [1]: 38.8%
Lym [1]: 80.4%
MCH [1]: 21.3 pg
MCHC [1]: 33.4%
MCV [1]: 63.8 fL
Mono [1]: 1.8%
Neu [1]: 16.4%
PT [1]: 15.9 s
Plat [1]: 125.8 x10_4/uL
RBC [1]: 609 x10_4/ul
Ret [1]: 6.8%
WBC [1]: 107.9 x10_2/uL
KIDNEY_L [1]: 1 g
KIDNEY_R [1]: 1 g
KIDNEY_TOTAL [1]: 2 g
LIVER [1]: 10.2 g
A/G [1]: 1.2
ALP [1]: 1533 IU/L
ALT [1]: 39.2 IU/L
AST [1]: 68 IU/L
BUN [1]: 16.8 mg/dL
CRE [1]: 0.2 mg/dL
Ca [1]: 10.9 mg/dL
Cl [1]: 106.4 meq/L
DBIL [1]: 0.002 mg/dL
GLC [1]: 187.2 mg/dL
IP [1]: 7.1 mg/dL
K [1]: 4.4 meq/L
LDH [1]: 210.8 IU/L
Na [1]: 142.6 meq/L
PL [1]: 140.6 mg/dL
RALB [1]: 3 g/dL
TBIL [1]: 0.012 mg/dL
TC [1]: 75.4 mg/dL
TG [1]: 86.8 mg/dL
TP [1]: 5.6 g/dL
gamma-GTP [1]: 1 IU/L
TERMINAL_BW [2]: 246.2 g
TERMINAL_BW [3]: 277 g
TERMINAL_BW [4]: 347.3 g
APTT [2]: 21.1 s
Bas [2]: 0%
Eos [2]: 0.6%
Fbg [2]: 320.8 mg/dL
Hb [2]: 13.4 g/dL
Ht [2]: 39.8%
Lym [2]: 80.2%
MCH [2]: 20.8 pg
MCHC [2]: 33.6%
MCV [2]: 61.8 fL
Mono [2]: 2%
Neu [2]: 16.4%
PT [2]: 17 s
Plat [2]: 131 x10_4/uL
RBC [2]: 644.2 x10_4/ul
Ret [2]: 5.8%
WBC [2]: 122.7 x10_2/uL
APTT [3]: 21.6 s
Bas [3]: 0%
Eos [3]: 1%
Fbg [3]: 303.8 mg/dL
Hb [3]: 14 g/dL
Ht [3]: 40.9%
Lym [3]: 81.8%
MCH [3]: 20.3 pg
MCHC [3]: 34.2%
MCV [3]: 59.4 fL
Mono [3]: 2%
Neu [3]: 14.4%
PT [3]: 16.7 s
Plat [3]: 112.6 x10_4/uL
RBC [3]: 689.8 x10_4/ul
Ret [3]: 4.2%
WBC [3]: 133.3 x10_2/uL
APTT [4]: 23.4 s
Bas [4]: 0%
Eos [4]: 1%
Fbg [4]: 288.2 mg/dL
Hb [4]: 14.7 g/dL
Ht [4]: 42.7%
Lym [4]: 79%
MCH [4]: 19.5 pg
MCHC [4]: 34.3%
MCV [4]: 56.9 fL
Mono [4]: 1.6%
Neu [4]: 17.4%
PT [4]: 16.1 s
Plat [4]: 97.6 x10_4/uL
RBC [4]: 751.4 x10_4/ul
Ret [4]: 2.9%
WBC [4]: 92 x10_2/uL
KIDNEY_L [2]: 1 g
KIDNEY_R [2]: 1 g
KIDNEY_TOTAL [2]: 2.1 g
KIDNEY_L [3]: 1.1 g
KIDNEY_R [3]: 1.1 g
KIDNEY_TOTAL [3]: 2.3 g
KIDNEY_L [4]: 1.3 g
KIDNEY_R [4]: 1.3 g
KIDNEY_TOTAL [4]: 2.5 g
LIVER [2]: 10.9 g
LIVER [3]: 11.5 g
LIVER [4]: 13.4 g
A/G [2]: 1.2
ALP [2]: 1666.2 IU/L
ALT [2]: 40 IU/L
AST [2]: 68 IU/L
BUN [2]: 17.8 mg/dL
CRE [2]: 0.2 mg/dL
Ca [2]: 10.6 mg/dL
Cl [2]: 107.4 meq/L
DBIL [2]: 0 mg/dL
GLC [2]: 182.4 mg/dL
IP [2]: 7.3 mg/dL
K [2]: 4.4 meq/L
LDH [2]: 164.4 IU/L
Na [2]: 144.4 meq/L
PL [2]: 146.6 mg/dL
RALB [2]: 3 g/dL
TBIL [2]: 0.01 mg/dL
TC [2]: 72.6 mg/dL
TG [2]: 125.8 mg/dL
TP [2]: 5.6 g/dL
gamma-GTP [2]: 1.8 IU/L
A/G [3]: 1.1
ALP [3]: 1834 IU/L
ALT [3]: 39.6 IU/L
AST [3]: 68 IU/L
BUN [3]: 19 mg/dL
CRE [3]: 0.2 mg/dL
Ca [3]: 10.1 mg/dL
Cl [3]: 107.4 meq/L
DBIL [3]: 0.002 mg/dL
GLC [3]: 194.8 mg/dL
IP [3]: 6.7 mg/dL
K [3]: 4.1 meq/L
LDH [3]: 160.2 IU/L
Na [3]: 142.4 meq/L
PL [3]: 138 mg/dL
RALB [3]: 3 g/dL
TBIL [3]: 0.008 mg/dL
TC [3]: 63.8 mg/dL
TG [3]: 128 mg/dL
TP [3]: 5.5 g/dL
gamma-GTP [3]: 1.2 IU/L
A/G [4]: 1.2
ALP [4]: 1175.4 IU/L
ALT [4]: 42.6 IU/L
AST [4]: 66.4 IU/L
BUN [4]: 18.6 mg/dL
CRE [4]: 0.2 mg/dL
Ca [4]: 10.2 mg/dL
Cl [4]: 107.8 meq/L
DBIL [4]: 0.004 mg/dL
GLC [4]: 183.6 mg/dL
IP [4]: 6 mg/dL
K [4]: 4.1 meq/L
LDH [4]: 156 IU/L
Na [4]: 143.2 meq/L
PL [4]: 131.8 mg/dL
RALB [4]: 3.1 g/dL
TBIL [4]: 0.012 mg/dL
TC [4]: 67 mg/dL
TG [4]: 103 mg/dL
TP [4]: 5.7 g/dL
gamma-GTP [4]: 1.8 IU/L
TERMINAL_BW [5]: 219.5 g
APTT [5]: 21.1 s
Bas [5]: 0%
Eos [5]: 0.8%
Fbg [5]: 343 mg/dL
Hb [5]: 13 g/dL
Ht [5]: 39.1%
Lym [5]: 79%
MCH [5]: 21.6 pg
MCHC [5]: 33.2%
MCV [5]: 65 fL
Mono [5]: 1.6%
Neu [5]: 18%
PT [5]: 16 s
Plat [5]: 116.7 x10_4/uL
RBC [5]: 603.4 x10_4/ul
Ret [5]: 7%
WBC [5]: 85.5 x10_2/uL
KIDNEY_L [5]: 1 g
KIDNEY_R [5]: 1 g
KIDNEY_TOTAL [5]: 2 g
LIVER [5]: 10.9 g
A/G [5]: 1.1
ALP [5]: 1503.8 IU/L
ALT [5]: 43.2 IU/L
AST [5]: 72.2 IU/L
BUN [5]: 16.8 mg/dL
CRE [5]: 0.2 mg/dL
Ca [5]: 10.9 mg/dL
Cl [5]: 107 meq/L
DBIL [5]: 0 mg/dL
GLC [5]: 188.2 mg/dL
IP [5]: 7.8 mg/dL
K [5]: 4.2 meq/L
LDH [5]: 181 IU/L
Na [5]: 143.6 meq/L
PL [5]: 149.8 mg/dL
RALB [5]: 2.9 g/dL
TBIL [5]: 0.006 mg/dL
TC [5]: 80.6 mg/dL
TG [5]: 108.2 mg/dL
TP [5]: 5.6 g/dL
gamma-GTP [5]: 1.2 IU/L
TERMINAL_BW [6]: 229.9 g
TERMINAL_BW [7]: 284.8 g
TERMINAL_BW [8]: 353.5 g
APTT [6]: 22.1 s
Bas [6]: 0%
Eos [6]: 1%
Fbg [6]: 323.4 mg/dL
Hb [6]: 13.7 g/dL
Ht [6]: 40.5%
Lym [6]: 82.8%
MCH [6]: 20.8 pg
MCHC [6]: 33.8%
MCV [6]: 61.6 fL
Mono [6]: 2%
Neu [6]: 13.2%
PT [6]: 16.4 s
Plat [6]: 120.4 x10_4/uL
RBC [6]: 658 x10_4/ul
Ret [6]: 4.8%
WBC [6]: 113.4 x10_2/uL
APTT [7]: 21.3 s
Bas [7]: 0%
Eos [7]: 0.6%
Fbg [7]: 297.6 mg/dL
Hb [7]: 14.3 g/dL
Ht [7]: 42.1%
Lym [7]: 83.6%
MCH [7]: 20.8 pg
MCHC [7]: 34%
MCV [7]: 61.1 fL
Mono [7]: 1.6%
Neu [7]: 13.2%
PT [7]: 16.2 s
Plat [7]: 116 x10_4/uL
RBC [7]: 689.4 x10_4/ul
Ret [7]: 4.6%
WBC [7]: 120.5 x10_2/uL
APTT [8]: 22.8 s
Bas [8]: 0%
Eos [8]: 1.2%
Fbg [8]: 307.8 mg/dL
Hb [8]: 15.3 g/dL
Ht [8]: 44.4%
Lym [8]: 78.8%
MCH [8]: 20.2 pg
MCHC [8]: 34.5%
MCV [8]: 58.6 fL
Mono [8]: 2.2%
Neu [8]: 17.2%
PT [8]: 15.8 s
Plat [8]: 96.3 x10_4/uL
RBC [8]: 758 x10_4/ul
Ret [8]: 2.6%
WBC [8]: 105 x10_2/uL
KIDNEY_L [6]: 1 g
KIDNEY_R [6]: 1 g
KIDNEY_TOTAL [6]: 2 g
KIDNEY_L [7]: 1.1 g
KIDNEY_R [7]: 1.2 g
KIDNEY_TOTAL [7]: 2.3 g
KIDNEY_L [8]: 1.2 g
KIDNEY_R [8]: 1.3 g
KIDNEY_TOTAL [8]: 2.5 g
LIVER [6]: 10.6 g
LIVER [7]: 12.3 g
LIVER [8]: 14.3 g
A/G [6]: 1.1
ALP [6]: 1638.2 IU/L
ALT [6]: 35.6 IU/L
AST [6]: 66.6 IU/L
BUN [6]: 18.6 mg/dL
CRE [6]: 0.2 mg/dL
Ca [6]: 10.4 mg/dL
Cl [6]: 108.8 meq/L
DBIL [6]: 0 mg/dL
GLC [6]: 174.6 mg/dL
IP [6]: 6.8 mg/dL
K [6]: 4.7 meq/L
LDH [6]: 183.8 IU/L
Na [6]: 144.2 meq/L
PL [6]: 129.6 mg/dL
RALB [6]: 3 g/dL
TBIL [6]: 0.008 mg/dL
TC [6]: 63.2 mg/dL
TG [6]: 109.2 mg/dL
TP [6]: 5.7 g/dL
gamma-GTP [6]: 1 IU/L
A/G [7]: 1.1
ALP [7]: 1409 IU/L
ALT [7]: 39.4 IU/L
AST [7]: 68.6 IU/L
BUN [7]: 17.6 mg/dL
CRE [7]: 0.2 mg/dL
Ca [7]: 10.2 mg/dL
Cl [7]: 108.2 meq/L
DBIL [7]: 0.002 mg/dL
GLC [7]: 175.4 mg/dL
IP [7]: 6.7 mg/dL
K [7]: 4.2 meq/L
LDH [7]: 177.2 IU/L
Na [7]: 143.2 meq/L
PL [7]: 137.2 mg/dL
RALB [7]: 2.9 g/dL
TBIL [7]: 0.012 mg/dL
TC [7]: 71.8 mg/dL
TG [7]: 88.8 mg/dL
TP [7]: 5.6 g/dL
gamma-GTP [7]: 1 IU/L
A/G [8]: 1.2
ALP [8]: 1369.6 IU/L
ALT [8]: 45.8 IU/L
AST [8]: 73.4 IU/L
BUN [8]: 20.4 mg/dL
CRE [8]: 0.2 mg/dL
Ca [8]: 10.3 mg/dL
Cl [8]: 107.6 meq/L
DBIL [8]: 0.004 mg/dL
GLC [8]: 189 mg/dL
IP [8]: 6.5 mg/dL
K [8]: 3.9 meq/L
LDH [8]: 183.6 IU/L
Na [8]: 143.2 meq/L
PL [8]: 142.6 mg/dL
RALB [8]: 3.2 g/dL
TBIL [8]: 0.026 mg/dL
TC [8]: 72.4 mg/dL
TG [8]: 111 mg/dL
TP [8]: 5.7 g/dL
gamma-GTP [8]: 1.4 IU/L
